These results are taken from patent publication US8080404B1, “Enzymatic decontamination” (priority 2005, dated 2011).

For this experiment, the system named is Bacillus anthracis NNR1Δ1 spores. In kind it is cell-based.

Turning to `CC(=O)Oc1ccccc1C(=O)O` [acetylsalicylic acid], the “efficiency of spore killing with acetyl donor” value is “increasing concentrations of acetylsalicylic acid resulted in increased efficiency of spore killing”.

Take octyl phenol ethoxylate [triton X-100]: the “spore kill efficiency with surfactant” value is “most efficient formulation for spore inactivation”. For `CCCCCCCCCCCC[N+](C)(C)CCCS(=O)(=O)[O-]` [3-(dodecyldimethylamino) propane sulfonate], the “promotion of spore killing by zwitterionic surfactant” value was “most efficient at promoting spore killing”. For the compound `CC(=O)O` [acetic acid], the “kill rate with acetyl donor” value is “enhanced the kill rate to about the same degree as did 0.125% acetylsalicylic acid”.
